How the values were obtained:
NCI-H23 = test: 3D cell proliferation assay, KRAS G12C mutant cell line NCI-H23; assay type: cell-based; conditions: Homo sapiens, 168 h, 7 day
Protocol: (§1) Growth inhibition assays was carried out using 10% FBS supplemented media. Cells were seeded at a desired concentration of 1000-6000 cells/well in a well plate with desired number of wells. Test compounds at a desired concentration range were added after 24 hours. Growth was assessed using the Cell Titer-Glo (CTG. Cell Signaling) for measuring reduction at 0 h (prior to the addition of the test compound) and 3 day (2D) or 7 day (3D) after the addition of test compound. Absorbance read on a BIO-RAD iMark Microplate or any equivalent microplate reader at a predetermined a wavelength for e.g. 450 nm. Data was be analysed and percent inhibition and/or IC50 for each test compound is calculated accordingly. Results: Data provide for a representative Cpd A across various cell lines including selectivity

eCT26 = test: 3D cell proliferation assay, eCT26 (engineered for KRASG12C mutation); assay type: cell-based; conditions: 168 h, 7 day
Protocol: as §1

human KRAS G12C protein = human KRAS G12C protein (Homo sapiens, UniProt P01116, G12C); test: HTRF-based nucleotide exchange assay detecting GTP binding to K-Ras; assay type: biochemical; conditions: KRAS G12C (aa 2-169), SOS1 (aa 564-1049), read-out: IC50, SOS1 mediated nucleotide exchange
Sequence of human KRAS G12C protein (P01116 2-169 isoform P01116-2 G12C): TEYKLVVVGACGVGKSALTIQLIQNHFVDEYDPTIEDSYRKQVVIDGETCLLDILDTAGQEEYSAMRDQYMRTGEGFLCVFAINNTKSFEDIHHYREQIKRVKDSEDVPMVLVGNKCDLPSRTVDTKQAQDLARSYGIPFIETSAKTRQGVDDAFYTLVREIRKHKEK
Protocol: Compounds (each 10 concentrations or any other concentration of choice at 3-fold or fold of choice for serial dilutions with a starting concentration of ˜300 um or 100 μM or 50 uM) were then delivered to the reaction wells using acoustic dispenser (Echo, Labcyte) and incubated with the Kras/aGST-Tb antibody for 1-hour at room temperature. After 1-hour incubation 5 μL of SOS1/GTP solution (SOS1—(corresponding to amino acid 564-1049) and GDP-DY-647P1 prepared using reaction buffer-20 mM Hepes, pH7.4, 150 mM Nacl, 5 mM MgCl2, 1 mM DTT, 0.05% BSA, 0.0025% NP40) was added to reaction wells to initiate the exchange reaction. HTRF based SOS1 mediated exchange of GDP to GTP was measured on a microplate reader PEHRAstar (BMG Labtech) at an excitation wavelength of 337 nm and emission wavelengths of 665 and 620 nm. No-SOS1 reaction or highest control compound concentration was used as blank and % inhibition was calculated and/or IC50 was determined using Sigmoidal dose response (variable slope) equation.

Calu-1 = test: 3D cell proliferation assay, KRAS G12C mutant cell line Calu-1; assay type: cell-based; conditions: Homo sapiens, 168 h, 7 day
Protocol: as §1

HCT116 = test: 2D cell proliferation assay, non-KRAS G12C mutant cell line HCT116; assay type: cell-based
Protocol: as §1

SW1463 = test: 3D cell proliferation assay, KRAS G12C mutant cell line SW1463; assay type: cell-based; conditions: Homo sapiens, 168 h, 7 day
Protocol: as §1

SW-837 = test: 3D cell proliferation assay, KRAS G12C mutant cell line SW-837; assay type: cell-based; conditions: Homo sapiens, SW837, 168 h, 7 day
Protocol: as §1

CO-04-0070 = test: 3D cell proliferation assay, CO-04-0070 patient derived cell line; assay type: cell-based; conditions: 168 h, CO-04-0070 (PDC), 7 day
Protocol: as §1

A549 = test: 2D cell proliferation assay, non-KRAS G12C mutant cell line A549; assay type: cell-based
Protocol: as §1

NCI-H1373 = test: 3D cell proliferation assay, KRAS G12C mutant cell line NCI-H1373; assay type: cell-based; conditions: Homo sapiens, 168 h, 7 day
Protocol: as §1

[1] = system: NCI-H358 Human Non-Small Cell Lung Cancer Xenograft; test: Anti-tumor effect in female Balb/c nude mice bearing NCI-H358 xenograft; assay type: in vivo
Protocol: NCI-H358 Xenograft was used to test representative compound of the invention where in NCI-H358 cells were inoculated in a mice model representing Lung Cancer with […] comprising of Control (Vehicle treated, GI) and two treatment cohorts/group namely Paclitaxel as standard (10 mg/kg Q3D, IV, G3) and test compound (100 mg/kg QD, Cpd A, G3) with each cohorts/group. Treatment was initiated when maximum tumor growth reached >200 mm3 and continued till the Vehicle are reached a maximum tumor volume of 2000 mm3.

NCI-H1792 = test: 3D cell proliferation assay, KRAS G12C mutant cell line NCI-H1792; assay type: cell-based; conditions: Homo sapiens, 168 h, 7 day
Protocol: as §1

C=CC(=O)N1CCN(c2nc(OC[C@@H]3CCCN3C)c(C#N)c3c2CCN(c2cccc4cccc(Cl)c24)C3)C[C@@H]1CC#N (single isomer, unassigned) [Ex 25]
IC50 (NCI-H23): 100 to 200 nM | IC50 (eCT26): < 100 nM | IC50 (human KRAS G12C protein): < 10 nM | IC50 (Calu-1): 100 to 200 nM | Fold Selectivity over KRAS G12C Mutant Cell Line (HCT116): Ω (Ω = >100 fold) | IC50 (SW1463): < 100 nM | IC50 (SW-837): 100 to 200 nM | IC50 (CO-04-0070): 100 to 200 nM | Fold Selectivity over KRAS G12C Mutant Cell Line (A549): ΩΩΩ (ΩΩΩ >600 fold) | IC50 (NCI-H1373): 100 to 200 nM | reduction in tumour volume as compared to Paclitaxel ([1]; 100 mg/kg QD vs Paclitaxel 10 mg/kg Q3DX3 Weeks, IV): statistically significant reduction | Tumor Growth inhibition (TGI) ([1]; 100 mg/kg QD, NCI-H358 xenograft, n=5): > 65% | reduction in tumor volume ([1]; 100 mg/kg QD, from day 3 onwards, P<0.01): statistically significant | effect on overall body weight ([1]; over the 21-day study period): No significant effect | IC50 (NCI-H1792): 200 to 1000 nM
